Data: patent US10919785B2, “Hydraulic conveyor of floating objects provided with a device for sanitising conveying composition, plant provided with such a conveyor and sanitising method” (MAF AGROBOTIC, priority 2016, dated 2021)
Read-outs that look alike come from different tables or passages of the source.

How the values were obtained:
[1] = format: physicochemical
Description: A hydraulic conveyor of a plant for sorting and packaging apples is selected containing a volume of 90 m^3 of a conveying composition containing “BELLIS” at a concentration of 50 m g/l (and boscalid at a concentration of 22 μg/l). A flow rate of the conveying composition of 36 m^3/h is established in the external circuit using the circulation pump 14 and a flow rate of photoreactive composition of 270 cm^3/h is established using the distribution pump 19, the photoreactive composition being an aqueous solution of hydrogen peroxide at an initial concentration of 400 g/l, i.e. 108 g or pure hydrogen peroxide. Under these conveying composition flow conditions, all of the volume of the conveying composition contained in the plant is theoretically treated within 2.5 hours. The composition to be sanitised obtained at the inlet of the sanitising device thus has an initial hydrogen peroxide proportion in the order of 3 ppm and is sufficient to allow the decontamination of the composition to be sanitised at the outlet of the sanitising device formed of 6 photolysis chambers mounted in series, each chamber comprising five fluorescent tubes with an individual power of 200 W.
The results obtained are shown in Table 1 hereinafter in which the concentration values of boscalid in the composition to be sanitised at the inlet of the photolysis tank (EC), at the outlet of the third chamber (S3E) of the photolysis tank and at the outlet of the sixth chamber (S6E) of the photolysis tank are given in μg/l. The column S6E/EC represents the ratio multiplied by 100 of the boscalid concentration at the outlet of the sixth chamber (S6E) of the photolysis tank to the boscalid concentration at the inlet of the photolysis tank (EC). The column C/C0 represents the ratio of the boscalid concentration measured at the inlet of the photolysis tank over time to the initial boscalid concentration (t=0).

[2] = format: physicochemical; details: 10 min, 25 μg/l
Text: The semi-industrial pilot device comprises a tank for composition to be treated of a volume of 1000 l, a circulation pump ensuring a flow of composition to be treated in a sanitising device with a flow rate of 6 m^3/h. The sanitising device comprises a single photolysis chamber comprising an inlet for water from the tank of composition to be treated and an outlet for sanitised water directed to the tank of composition to be treated. The composition to be treated comprises boscalid at an initial concentration of 25 μg/l and an initial hydrogen peroxide concentration of 2 mg/l.
The photolysis chamber is formed of a rigid tubular envelope, of which the external wall is opaque to light and forming an inner space suitable for receiving five fluorescent tubes with a longitudinal axis extending in parallel with the longitudinal axis of the rigid tubular envelope. The inner volume of the decontamination reactor is in the order of 32 l. The five fluorescent tubes are tubes of 200 W emitting light at a wavelength of 254 nm and arranged longitudinally in the tubular envelope at the five points of a regular pentagon and in contact with the water to be treated flowing in the photolysis chamber.
After 10 minutes of operation of the semi-industrial pilot device, almost all of the composition to be treated has been illuminated in the photolysis chamber. […]

[3] = format: physicochemical; details: 250 μg/l
Text: A semi-industrial pilot device in accordance with one aspect of the invention comprises a tank for recirculating water to be treated of a volume of 1000 l, a circulation pump ensuring a circulation flow of the water to be treated in a sanitising device with a flow rate between 4 m^3 to 8 m^3/h. The sanitising device comprises a photolysis chamber comprising an inlet for water from the recirculation tank and an outlet for sanitised water directed to the recirculation tank. The photolysis chamber is formed of a rigid tubular envelope, of which the external wall is opaque to light and forming an inner space suitable for receiving five fluorescent tubes with a longitudinal axis extending in parallel with the longitudinal axis of the rigid tubular envelope. The inner volume of the decontamination reactor is in the order of […].
The five fluorescent tubes are tubes of 200 W emitting light at a wavelength of 254 nm and arranged longitudinally in the tubular envelope at the five points of a regular pentagon and in contact with the water to be treated flowing in the photolysis chamber. In this configuration of the sanitising device, the water to be sanitised flowing in contact with the five fluorescent tubes is subjected to substantially homogeneous illumination in the order of 500 mJ/cm^2 for a circulation flow rate of water to be sanitised in the order of 6 m^3/h. The semi-industrial pilot device also comprises a tank for storing an aqueous solution of hydrogen peroxide (H2O2) provided with a pump for distributing said solution in the circulation flow of water to be sanitised issuing into the circuit of water to be sanitised upstream of and in proximity to the photolysis chamber. The concentration of the hydrogen peroxide in the aqueous solution of hydrogen peroxide is between 2 m g/l and 13 mg/l. The set-point flow rate of the pump for distributing solution of H2O2 is kept at 4 l/h.
The flow rate of the recycling pump is 6 m^3/h and the initial boscalid concentration in the recirculation tank is 250 μg/l. The 5 lamps of the sanitising device are switched on. […]

For `O=C(Nc1ccccc1-c1ccc(Cl)cc1)c1cccnc1Cl` [boscalid], the “rate of degradation between the inlet and outlet of the photolysis tank” value ([1]; 22 μg/l) was “greater than 90%”, the “boscalid concentration at the inlet of the photolysis tank (EC)” value (“boscalid concentration at the inlet” below) ([1]; time 0 hours) was 21.43 µg/L and the “C/C0 (inlet boscalid concentration over initial concentration)” value ([1]; time 1.25 hours) was 0.79. For the same molecule, the S6E/EC ([1]; time 1.25 hours) was 92%, the “boscalid concentration at the inlet” value ([1]; time 1.25 hours) was 16.64 µg/L and the “boscalid concentration at the outlet of the sixth chamber (S6E)” value (“boscalid concentration at the outlet … (S6E)” below) ([1]; time 1.25 hours) was 1.28 µg/L. The “C/C0 (inlet boscalid concentration over initial concentration)” value ([1]; time 2.5 hours) was 0.73, the S6E/EC ([1]; time 2.5 hours) was 94% and the “boscalid concentration at the inlet” value ([1]; time 2.5 hours) was 15.68 µg/L. The “boscalid concentration at the outlet … (S6E)” value ([1]; time 2.5 hours) was 0.99 µg/L, the “boscalid concentration at the outlet of the third chamber (S3E)” value (from here on “boscalid concentration at the outlet … (S3E)”) ([1]; time 2.5 hours) was 3.96 µg/L and the “C/C0 (inlet boscalid concentration over initial concentration)” value ([1]; time 3.75 hours) was 0.73. For the same molecule, the S6E/EC ([1]; time 3.75 hours) was 94%, the “boscalid concentration at the inlet” value ([1]; time 3.75 hours) was 15.56 µg/L and the “boscalid concentration at the outlet … (S6E)” value ([1]; time 3.75 hours) was 0.91 µg/L. The “boscalid concentration at the outlet … (S3E)” value ([1]; time 3.75 hours) was 3.38 µg/L, the “C/C0 (inlet boscalid concentration over initial concentration)” value ([1]; time 5 hours) was 0.66 and the S6E/EC ([1]; time 5 hours) was 94%. For the same molecule, the “boscalid concentration at the inlet” value ([1]; time 5 hours) was 14.06 µg/L, the “boscalid concentration at the outlet … (S6E)” value ([1]; time 5 hours) was 0.56 µg/L and the “boscalid concentration at the outlet … (S3E)” value ([1]; time 5 hours) was 2.71 µg/L. For the same molecule, the “C/C0 (inlet boscalid concentration over initial concentration)” value ([1]; time 7.5 hours) was 0.38, the “boscalid concentration at the inlet” value ([1]; time 7.5 hours) was 8.25 µg/L and the “boscalid concentration at the outlet … (S3E)” value ([1]; time 7.5 hours) was 1.78 µg/L. The “elimination from the conveying composition of the hydraulic conveyor” value ([1]; within 7.5 hours) was 62%, the “rate of degradation of the initial boscalid” value [2] was 58% and the “final rate of degradation” value [3] was 95%. For the same molecule, the initial degradation [3] was “equivalent to that obtained with the addition of hydrogen peroxide at the concentration of 13 mg/l” and the “degradation of the initial boscalid” value ([3]; 1 h) was 10%.
